Data from the supplement of paper PMC10627819.

What was measured:
[1] = test system: B. subtilis 168; assay: fitness (endpoint OD595 vs no drug) (fraction); higher = more growth
How it was run: (§1)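 Bacterial growth was followed in 384-well plates seeded at OD595 0.01, with 30 µl per well, or 55 µl for S. pneumoniae, in TSB, LB Lennox or CY at 37 °C. OD595 was read every 30 min for 14 h, and each reading had the first reading subtracted as background. Fitness is the background-corrected optical density at entry into stationary phase divided by the robust mean of the no-drug control wells. This ratio is capped at 1.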

[2] = test system: S. aureus Newman; assay: as above
How it was run: as §1

[3] = test system: S. pneumoniae D39V; assay: Bliss interaction score (quartile over a dose matrix) (fitness difference); higher = more antagonism (negative = synergy)
How it was run: (§2)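 Fitness here means normalised growth, inferred for single drugs from the combination data. Growth was OD595 at entry into stationary phase, divided by the plate's robust no-drug mean and capped at 1. The Bliss score is observed minus expected fitness, with the expectation being the product, and its quartiles span technical, biological and donor/recipient replicates.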

[4] = test system: S. aureus DSM 20231; assay: as above
How it was run: as §2

[5] = test system: B. subtilis 168; assay: as above
How it was run: as §2

[6] = test system: S. aureus Newman; assay: as above
How it was run: as §2

[7] = test system: S. pneumoniae D39V; assay: fitness (endpoint OD595 vs no drug) (fraction); higher = more growth
How it was run: as §1
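For Bliss interaction score (quartile over a dose matrix) in this document: first quartile when negative (synergy) and third quartile when positive (antagonism).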

CO/N=C(\C(=O)N[C@@H]1C(=O)N2C(C(=O)O)=C(COC(N)=O)CS[C@H]12)c1ccco1 [Cefuroxime] + CN(C)c1cc(NC(=O)CNC(C)(C)C)c(O)c2c1C[C@H]1C[C@H]3[C@H](N(C)C)C(O)=C(C(N)=O)C(=O)[C@@]3(O)C(O)=C1C2=O [Tigecycline]
fitness, [1]
Conditions | partner 0.039 µg/mL | partner 0.078 µg/mL | partner 0.156 µg/mL
first compound 0.0975 µg/mL | 0.652 | 0.677 | 0.669
first compound 0.195 µg/mL | 0.553 | 0.53 | 0.537

fitness, one replicate
Conditions | partner 0.039 µg/mL | partner 0.078 µg/mL | partner 0.125 µg/mL | partner 0.156 µg/mL | partner 0.25 µg/mL | partner 0.5 µg/mL
[1], first compound 0.195 µg/mL | – | – | 0.405 | – | 0.368 | 0.398
[1], first compound 0.39 µg/mL | – | – | 0.34 | – | 0.287 | 0.299
[1], first compound 0.78 µg/mL | – | – | 0.292 | – | 0.211 | 0.259
[1], first compound 1.562 µg/mL | 0.349 | 0.284 | – | 0.283 | – | –
[1], first compound 3.125 µg/mL | 0.258 | 0.219 | – | 0.235 | – | –
[1], first compound 6.25 µg/mL | 0.227 | 0.17 | – | 0.153 | – | –
[2], first compound 0.04875 µg/mL | 0.933 | 0.907 | – | 0.95 | – | –
[2], first compound 0.0975 µg/mL | 0.927 | 0.959 | – | 0.895 | – | –
[2], first compound 0.195 µg/mL | 0.879 | 0.843 | – | 0.863 | – | –

Conditions | Bliss interaction score
[3] | 0.0499
[4] | 0.0902
[5] | 0.0459
[6] | -0.0442

CN(C)c1cc(NC(=O)CNC(C)(C)C)c(O)c2c1C[C@H]1C[C@H]3[C@H](N(C)C)C(O)=C(C(N)=O)C(=O)[C@@]3(O)C(O)=C1C2=O [Tigecycline] + CN[C@H](CC(C)C)C(=O)N[C@H]1C(=O)N[C@@H](CC(N)=O)C(=O)N[C@H]2C(=O)N[C@H]3C(=O)N[C@H](C(=O)N[C@H](C(=O)O)c4cc(O)cc(O)c4-c4cc3ccc4O)[C@H](O)c3ccc(c(Cl)c3)Oc3cc2cc(c3O[C@@H]2O[C@H](CO)[C@@H](O)[C@H](O)[C@H]2O[C@H]2C[C@](C)(N)[C@H](O)[C@H](C)O2)Oc2ccc(cc2Cl)[C@H]1O [Vancomycin]
Conditions | fitness
[2], first compound 0.039 µg/mL, partner 0.1875 µg/mL | 0.974
[2], first compound 0.039 µg/mL, partner 0.375 µg/mL | 0.998
[2], first compound 0.039 µg/mL, partner 0.75 µg/mL | ≥ 1
[2], first compound 0.078 µg/mL, partner 0.1875 µg/mL | ≥ 1
[2], first compound 0.078 µg/mL, partner 0.375 µg/mL | 0.99
[2], first compound 0.078 µg/mL, partner 0.75 µg/mL | 0.987
[2], first compound 0.156 µg/mL, partner 0.1875 µg/mL | 0.992
[2], first compound 0.156 µg/mL, partner 0.375 µg/mL | ≥ 1
[2], first compound 0.156 µg/mL, partner 0.75 µg/mL | 0.987
[7], first compound 0.65 µg/mL, partner 0.03125 µg/mL | 0.967
[7], first compound 0.65 µg/mL, partner 0.0625 µg/mL | 0.939
[7], first compound 0.65 µg/mL, partner 0.125 µg/mL | 0.871
[7], first compound 0.65 µg/mL, partner 0.5 µg/mL | 0.0606
[7], first compound 1.3 µg/mL, partner 0.03125 µg/mL | 0.989
[7], first compound 1.3 µg/mL, partner 0.0625 µg/mL | 0.937
[7], first compound 1.3 µg/mL, partner 0.125 µg/mL | 0.882
[7], first compound 1.3 µg/mL, partner 0.5 µg/mL | 0.0528
[7], first compound 2.6 µg/mL, partner 0.03125 µg/mL | 0.961
[7], first compound 2.6 µg/mL, partner 0.0625 µg/mL | 0.962
[7], first compound 2.6 µg/mL, partner 0.125 µg/mL | 0.918
[7], first compound 2.6 µg/mL, partner 0.25 µg/mL | 0.543
[7], first compound 2.6 µg/mL, partner 0.5 µg/mL | 0.0988

Conditions | Bliss interaction score
[3] | 0.0783
[4] | 0.0923
[5] | 0.0787
[6] | 0.0428
